# Values of other authors, collected in US6518456B1, “Process for the production of 1-(aminomethyl)-cyclohexyl-acetic acid in pure form” (Procos S.p.A., priority 2001, dated 2003).
# Settings: extremely low toxicity; species and route not given
smiles,measurement,value
"NCC1(CC(=O)O)CCCCC1 [Gabapentin, 1-(aminomethyl)cyclohexyl-acetic acid]",LD50,> 8000 mg/kg
